Assay: Particle size of suspensions by PCS / laser diffractometer (LD)
Format: physicochemical
Description: Wet grinding has been employed as a further grinding technique (Sandell, E., Grundriss der Galenischen Pharmazie [Principles of galenical pharmacy], Govi-Verlag GmbH, Frankfurt am Main, 1962), for example using a Premier Mill (Sandell, loc. cit.) or a ball or pearl mill (Hagers Handbuch der pharmazeutischen Praxis [Hagers handbook of pharmaceutical practice], Springer-Verlag, Berlin, 1925). Although a main population of particles in the nanometer range results when a pearl mill is used, a significant proportion of particles larger than 1 μm is still present. […] RNXP 22 was ground (Dispermat) in a pearl mill without addition of surfactant (FIG. 2: A) and with addition of 3% Tween 80 (FIG. 2: A+surfactant). The 50% diameter of the surfactant-free sample is already approx. 2 μm, i.e. 50% of the particles are >2 μm. Some of these micrometer particles can be attributed to agglomeration. As described in the literature (Sandell, loc. cit.; P. H. List, Arzneiformenlehre [Drug forms], Wissenschaftliche Verlagsgesellschaft mbH Stuttgart, 1976; Sucker, H., Speiser, P., Fuchs, P., Pharmazeutische Technologie [Pharmaceutical technology], George Thieme Verlag Stuttgart, 1978; Munzel, K., Buchi, J., Schultz, O.-E., Galenisches Praktikum [Practical galenics], Wissenschaftliche Verlagsgesellschaft mbH Stuttgart, 1959), aggregation in suspensions can be prevented by addition of surfactants (Tween 80, Pluronic F 68) or generally stabilizers (e.g. polyvinylpyrrolidone--PVP, Pluronic F 68). […] As a rule, this is also recommended by manufacturers of mills (e.g. Dyno-Mill, A. Bachoffen AG Maschinenfabrik). Surfactant-stabilized microparticles have also been patented (U.S. Pat. No. 5,246,707), it also being possible for these additionally to comprise iron particles within the microparticles in order to allow location of the particles via magnetic fields.
Another preparation method which has been known for a long time is "via humida paratum", precipitation by pouring a solution of the active compound into a non-solvent (Hagers Handbuch der pharmazeutischen Praxis [Hagers handbook of pharmaceutical practice], Springer-Verlag, Berlin, 1925). By pouring into the non-solvent, the Ostwald Mie range is rapidly passed through and a very fine precipitate separates out. The particles which have precipitated out likewise have a significant proportion in the micrometer range. […] The drug was dissolved in ethanol (3%, 20 ml) and the solution poured into 100 ml of an aqueous surfactant solution (1.2% Pluronic F68). The end of the measuring range is 80 μm, and a large fraction between approx. 18 μm to 80 μm was detected.
The powdered drug (ground in an air jet, particles up to more than 25 μm) was rubbed in a grinding dish with a concentrated surfactant solution for wetting, and the remaining aqua dest. was then added, while stirring. Alternatively, the drug powder can also be introduced into a surfactant solution by stirring. […] The average particle diameter of the parent suspensions (=suspension with 0 cycles), measured with the laser diffractometer, and of the resulting nanosuspensions by PCS (PI=polydispersity index):
Preparation of the suspension and subsequent homogenization as in example 1. […] To monitor the decrease in the particles also in the size range from 1 μm to several μm as a function of the number of cycles, the samples were analysed with the LD. The results were evaluated by plotting the 99% diameter against the number of cycles (FIG. 6). […]

[1] = ground in an air jet, LD (FIG. 1)

For `C[C@@H]1CN(c2nc(N(CCO)CC(C)(C)O)c3nc(-c4ccccc4)c(N4C[C@@H](C)O[C@@H](C)C4)nc3n2)C[C@H](C)O1` [RMKP 22, 4-[N-(2-hydroxy-2-methylpropyl)-ethanolamine]-2.7-bis(cis-2.6-dimethylmorpholin-4-yl)-6-phenyl-pteridine], which “50% LD diameter” value (ground in a pearl mill, surfactant-free sample (FIG. 2: A)) is on record?
Its value is “approx. 2 μm”.

And the “particles >1 μm” value [1]?
Its value is 92%.

And the “particles in the range below 1,000 nm” value [1]?
The value was 8%.

What about the “particles smaller than 25 μm” value [1] of the same molecule?
Its value is 100%.

What about the “effect of surfactant on diameters of the volume distribution” value (pearl mill, addition of 3% Tween 80 (FIG. 2: A+surfactant)) of the same molecule?
Its value is “only a slight reduction in the diameters of the volume distribution”.

From patent publication US5858410A, “Pharmaceutical nanosuspensions for medicament administration as systems with increased saturation solubility and rate of solution” (Medac Gesellschaft Fur Klinische Spezialpraparate, priority 1994, dated 1999)
